Results: US10112933B2, “Methods and compositions for treatment of fibrosis” (Baylor College of Medicine, priority 2013, dated 2018)

Legend:
[1] = tested on: alveolar epithelial cells (MLE-12 and primary AEC); experiment: TGF-beta and IL-6/sIL-6R-alpha induced EMT of alveolar epithelial cells; assay type: cell-based
Protocol: (§1) The role of STAT3 in EMT and myofibroblast differentiation was determined by using […]-9 in tissue culture experiments with alveolar epithelial cells (AEC; MLE-12 and primary AEC) and murine lung fibroblasts. […] […]-9 prevented TGF-beta and IL-6/sIL-6R-alpha induced EMT of AEC assessed by Col1a, alpha-SMA, Twist, and Snail mRNA levels and reduced myofibroblast differentiation as assessed by Col1a and alpha-SMA mRNA levels.

[2] = tested on: skin fibrosis; experiment: Subcutaneous bleomycin mouse model of skin fibrosis; assay type: in vivo; conditions: intraperitoneal treatment days 14-28 of the 4 week model
Protocol: FIG. 20 illustrates an exemplary study design using a subcutaneous (SQ) bleomycin model for skin fibrosis. In a basic model, bleomycin is administered to wild type mice (C57/Bl6) via subcutaneous injection 5 days a week for a total of 4 weeks. PBS is used as a control for the bleomycin. Fibrosis is assessed in the biopsied skin on day 28. Fibrosis is assessed using histology (hematoxylin and eosin stain), where the dermal thickness is quantified as the average linear distance from the dermis-epidermis junction to the subQ muscle layer. Masson's trichrome staining is also performed to stain collagen blue. Immunohistochemistry is performed for alpha-smooth muscle actin, the marker of the myofibroblasts (cell that makes collagen during the process of fibrosis). Future endpoints are assessed including collagen content. To illustrate that STAT3 inhibitor is a useful therapy at least for dermal fibrosis, an example of a STAT3 inhibitor (C188-9) was given via the intraperitoneal route daily, starting in week 3 of the bleomycin model. DMSO was used as a control for the STAT3 inhibitor.

[3] = tested on: murine lung fibroblasts; experiment: Myofibroblast differentiation of lung fibroblasts; assay type: cell-based
Protocol: as §1

SMILES: COc1ccc(S(=O)(=O)Nc2cc(-c3c(O)ccc4ccccc34)c(O)c3ccccc23)cc1 [C188-9, N-(1′,2-dihydroxy-1,2′-binaphthalen-4′-yl)-4-methoxybenzenesulfonamide]
- TGF-beta and IL-6/sIL-6R-alpha induced EMT of AEC (Col1a, alpha-SMA, Twist, Snail mRNA levels) [1]: prevented
- bleomycin-induced increase of dermal fibrotic gene expression (Acta2, Col1a1, Col1a2 transcripts), RT-PCR [2]: blunted
- myofibroblast differentiation (Col1a and alpha-SMA mRNA levels) [3]: reduced
